Test results taken from patent US6638943B2 (The University of Tennessee Research Foundation, priority 2001, dated 2003).
Like-named read-outs stand apart in the source and are kept apart here.

How the values were obtained:
human α2b-AR = biological target: T1, human α2b-AR (Homo sapiens, UniProt P18089); assay: [3H]Rauwolscine equilibrium competition binding, human α2b-AR expressed in CHO cells
T1 construct: expressed in transfected cells
T1 sequence (P18089 1-450): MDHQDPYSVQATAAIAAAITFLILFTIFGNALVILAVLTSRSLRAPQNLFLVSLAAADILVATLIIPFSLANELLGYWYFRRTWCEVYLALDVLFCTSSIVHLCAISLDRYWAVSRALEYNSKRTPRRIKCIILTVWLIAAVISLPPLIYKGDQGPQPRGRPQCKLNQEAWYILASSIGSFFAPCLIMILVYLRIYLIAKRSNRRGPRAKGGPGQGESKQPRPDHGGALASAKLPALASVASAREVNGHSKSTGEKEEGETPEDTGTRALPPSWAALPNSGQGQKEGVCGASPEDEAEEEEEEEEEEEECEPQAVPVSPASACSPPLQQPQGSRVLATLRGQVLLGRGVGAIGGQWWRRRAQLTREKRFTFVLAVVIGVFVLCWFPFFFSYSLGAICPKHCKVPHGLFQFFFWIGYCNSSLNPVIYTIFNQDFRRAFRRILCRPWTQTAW

human α2a-AR = biological target: T2, human α2a-AR (Homo sapiens, UniProt P08913); assay: [3H]Rauwolscine equilibrium competition binding, human α2a-AR expressed in CHO cells; conditions: for Ki: human α2a-AR in CHO cells; for α2a/α2b Selectivity = Ki(α2b)/Ki(α2a): Table 1, ratio of Ki values
T2 construct: expressed in transfected cells
T2 sequence (P08913 1-465): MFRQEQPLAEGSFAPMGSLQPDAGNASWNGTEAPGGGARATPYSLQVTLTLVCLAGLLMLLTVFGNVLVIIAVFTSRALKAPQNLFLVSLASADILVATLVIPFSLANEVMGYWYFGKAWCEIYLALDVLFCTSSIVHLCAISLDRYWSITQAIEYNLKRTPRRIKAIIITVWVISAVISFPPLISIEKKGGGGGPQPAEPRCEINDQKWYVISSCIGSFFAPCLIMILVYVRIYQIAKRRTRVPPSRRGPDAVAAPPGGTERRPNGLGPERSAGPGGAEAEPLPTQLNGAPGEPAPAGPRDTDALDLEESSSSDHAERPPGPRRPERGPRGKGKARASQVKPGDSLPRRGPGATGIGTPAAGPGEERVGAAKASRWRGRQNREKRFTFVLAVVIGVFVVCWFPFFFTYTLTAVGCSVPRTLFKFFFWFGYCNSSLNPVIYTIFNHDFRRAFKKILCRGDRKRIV

human α2c-AR = biological target: T3, human α2c-AR (Homo sapiens, UniProt P18825); assay: [3H]Rauwolscine equilibrium competition binding, human α2c-AR expressed in CHO cells
T3 construct: expressed in transfected cells
T3 sequence (P18825 1-462): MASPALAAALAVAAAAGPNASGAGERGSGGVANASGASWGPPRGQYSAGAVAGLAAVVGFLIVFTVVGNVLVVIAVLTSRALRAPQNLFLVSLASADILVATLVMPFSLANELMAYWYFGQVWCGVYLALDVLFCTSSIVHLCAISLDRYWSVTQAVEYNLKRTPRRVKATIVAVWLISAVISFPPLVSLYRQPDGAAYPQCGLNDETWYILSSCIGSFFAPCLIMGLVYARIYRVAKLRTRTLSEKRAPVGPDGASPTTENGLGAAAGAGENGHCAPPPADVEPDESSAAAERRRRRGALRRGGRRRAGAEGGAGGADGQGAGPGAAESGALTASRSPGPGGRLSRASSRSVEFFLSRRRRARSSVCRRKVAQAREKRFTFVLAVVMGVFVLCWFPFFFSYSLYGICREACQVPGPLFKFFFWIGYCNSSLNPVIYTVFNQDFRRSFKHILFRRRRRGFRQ

[1] = test system: cremaster muscle arterioles (A3-A4 resistance vessels); assay: Intravital microscopy of mouse cremaster muscle arterioles; assay type: in vivo, male C57-BL mice; conditions: 37° C., systemic administration via femoral vein, n=6
Procedure: Male C57-BL mice age 7-8 weeks and weighing approximately 20 g were used for the study. Prior to surgery animals were anesthetized with an i.m. injection of […] of Ketaset (87 mg ketamine/mL+13 mg xylazine/mL). Body temperature was maintained at ˜37° C. by convective heating. The animal was supinated and a midline incision was made in the ventro-cervical region and the underlying tissues bisected laterally to expose the trachea. A tracheotomy was performed and the animal intubated directly with PE50 tubing to facilitate ventilation, and the wound closed. The left rear limb was incised to expose the femoral neurovascular bundle, and the femoral vein isolated and catheterized with PE10 tubing attached to a syringe of normal saline. […]. […]
All experiments were carried out using an industrial grade microscope (Nikon MM-11) with two light sources, bright field (Opti-Quip 75 W xenon) and fluorescent (Nikon 150 W mercury). […] Experiments are viewed on a video monitor and recorded on digital tapes for off-line processing. The video images are analyzed off-line using the MetaMorph software (Universal Imaging Co.) on a Dell Optiplex GX-1. […]
The prepared animal was placed on the stage of the microscope on either the surgery board with the translumination window or on a stereotaxic frame. […] The blood pressure was monitored with a Kent Scientific XBP-1000 unit.

[2] = Table 2, mean ± SEM of n = 4-6, read-out: pKi α2b-AR (converted)
[3] = [3H]rauwolscine 2.54 nM, mean ± SEM of four to nine experiments, read-out: Ki = SEM (nM) α2b-AR
[4] = Table 2, mean ± SEM of n = 4-6, read-out: pKi α2a-AR (converted)
[5] = [3H]rauwolscine 2.54 nM, mean ± SEM of four to nine experiments, read-out: Ki = SEM (nM) α2a-AR

| Ki (human α2b-AR; [2]) [nM] | Ki (human α2b-AR; [3]) [nM] | Ki (human α2a-AR; [4]) [nM] | Ki (human α2a-AR; [5]) [nM] | Ki (human α2c-AR) [µM] | α2a/α2b Selectivity = Ki(α2b)/Ki(α2a) (human α2a-AR) | binding affinity for α2c-AR greater than on the α1-AR subtypes (human α2c-AR; from Table 3) | SMILES | increase in vessel diameter [1] [%] |
| --- | --- | --- | --- | --- | --- | --- | --- | --- |
| 288 | 166 ± 56.7 | 4.47 | 1.35 ± 0.27 | 0.00692 |  |  | O=C(NCCCCCCNC(=O)[C@@H]1[C@H]2C[C@H]3c4[nH]c5ccccc5c4CCN3C[C@@H]2CC[C@@H]1O)[C@@H]1[C@H]2C[C@H]3c4[nH]c5ccccc5c4CCN3C[C@@H]2CC[C@@H]1O [Compound 3e] |  |
| 3160 | 1510 ± 262 | 93.3 | 26.4 ± 7.3 | 0.00355 |  |  | O=C(NCCNC(=O)[C@@H]1[C@H]2C[C@H]3c4[nH]c5ccccc5c4CCN3C[C@@H]2CC[C@@H]1O)[C@@H]1[C@H]2C[C@H]3c4[nH]c5ccccc5c4CCN3C[C@@H]2CC[C@@H]1O [Compound 3a] |  |
|  |  | 6.17 | 1.73 ± 0.26 | 0.0107 |  |  | O=C(NCCCCCNC(=O)[C@@H]1[C@H]2C[C@H]3c4[nH]c5ccccc5c4CCN3C[C@@H]2CC[C@@H]1O)[C@@H]1[C@H]2C[C@H]3c4[nH]c5ccccc5c4CCN3C[C@@H]2CC[C@@H]1O [Compound 3d] |  |
| 398 | 189 ± 38.1 | 53.7 | 15.3 ± 6.2 | 0.00832 |  |  | O=C(NCCCCNC(=O)[C@@H]1[C@H]2C[C@H]3c4[nH]c5ccccc5c4CCN3C[C@@H]2CC[C@@H]1O)[C@@H]1[C@H]2C[C@H]3c4[nH]c5ccccc5c4CCN3C[C@@H]2CC[C@@H]1O [Compound 3c] |  |
|  |  | 3.09 | 0.87 ± 0.18 | 0.00339 |  |  | O=C(NCCCCCCCNC(=O)[C@@H]1[C@H]2C[C@H]3c4[nH]c5ccccc5c4CCN3C[C@@H]2CC[C@@H]1O)[C@@H]1[C@H]2C[C@H]3c4[nH]c5ccccc5c4CCN3C[C@@H]2CC[C@@H]1O [Compound 3f] |  |
|  | 46 ± 7.6 |  | 0.76 ± 0.12 |  | 60.5 |  | O=C(NCCCCCCCCNC(=O)[C@@H]1[C@H]2C[C@H]3c4[nH]c5ccccc5c4CCN3C[C@@H]2CC[C@@H]1O)[C@@H]1[C@H]2C[C@H]3c4[nH]c5ccccc5c4CCN3C[C@@H]2CC[C@@H]1O [Compound 3g] |  |
|  | 18.6 ± 1.6 |  | 0.39 ± 0.08 |  | 47.7 |  | O=C(NCCCCCCCCCCNC(=O)[C@@H]1[C@H]2C[C@H]3c4[nH]c5ccccc5c4CCN3C[C@@H]2CC[C@@H]1O)[C@@H]1[C@H]2C[C@H]3c4[nH]c5ccccc5c4CCN3C[C@@H]2CC[C@@H]1O [Compound 3i] |  |
|  |  |  |  |  |  | at least 4400 fold | COC(=O)[C@@H]1[C@H]2C[C@H]3c4[nH]c5ccccc5c4CCN3C[C@@H]2CC[C@@H]1O [Yohimbine, reference compound] | 22.14±1.08 |
